Results published in US4389486A, “Biologically pure culture” (Kowa Company, Ltd., priority 1977, dated 1983).

What was measured:
[1] = Solubility; type: physicochemical
[2] = Stability to pH; type: physicochemical
[3] = Acute toxicity in mice; conditions: mouse, in vivo
Excerpt: The acute toxicities of the KA-6606 I, II, III and IV of this invention determined by using mice are as follows.

[4] = in chloroform, ethyl acetate, diethyl ether, hexane and petroleum ether

Structure (SMILES)	Solubility [1, 4]	Solubility ([1]; in ethanol)	Solubility ([1]; in methanol)	Solubility ([1]; in water)	Stability ([2]; in basicity and strong acidity)	Stability ([2]; pH of 3 to 8)	LD50 ([3]; iv.) [mg/kg]	LD50 ([3]; sc.) [mg/kg]	Stability ([2]; in strong acidity)	Stability ([2]; pH of at least 2)
COC1CC(N)C(OC2OC(C(C)N)CCC2N)C(O)C1N(C)C(=O)CNC(N)=O (centres unmarked) [KA-6606 III]	insoluble	slightly soluble	easily soluble	Very readily soluble	gradually decomposed and inactivated	Stable	> 200	> 800	–	–
CNC1C(OC)CC(N)C(OC2OC(C(C)N)CCC2N)C1O (centres unmarked) [KA-6606 II]	insoluble	slightly soluble	easily soluble	Very readily soluble	–	–	> 400	> 1000	gradually decomposed and inactivated	Stable
COC1CC(N)C(OC2OC(C(C)N)CCC2N)C(O)C1N(C)C(=O)CNC=O (centres unmarked) [KA-6606 IV]	insoluble	slightly soluble	easily soluble	Very readily soluble	gradually decomposed and inactivated	Stable	> 200	> 800	–	–
COC1CC(N)C(OC2OC(C(C)N)CCC2N)C(O)C1N(C)C(=O)CN (centres unmarked) [KA-6606 I]	Insoluble	slightly soluble	Easily soluble	Very readily soluble	gradually decomposed and inactivated	Stable	50 to 100	200 to 400	–	–
